In patent US4797400A, “Piperazine compounds and anti-ulcer composition containing the same” (Kanebo, Ltd., priority 1986, dated 1989):
Structures can show the parent of a compound that is named as a salt.

Tests used:
[1] = tested on: indomethacin-induced gastric ulcer; test: Inhibitory effect on indomethacin-induced gastric ulcer; format: in vivo; details: Rattus norvegicus, po; male SD rats; indomethacin 30 mg/kg s.c.; ulcer index after 5 hours
Experimental: Inhibitory effect on indomethacin-induced gastric ulcer: It was done in the same manner as described by Okabe et al. [cf. Digestive Diseases and Science, 28, 1034 (1983)]. That is, male SD rats (weighing 180-220 g, 8 weeks age, 16 rats per group) were fasted for 24 hours, and to the rats was orally administered the test compound in the form of a solution in distilled water or a suspension in 1% aqueous gum arabic. After 15 minutes, to the rats was subcutaneously administered indomethacin (30 mg/kg) in the form of a solution in 3% aqueous sodium hydrogen carbonate solution. After 5 hours, the rats were sacrificed under ether anesthesia and the stomach was removed. The stomach was treated with formalin and the ulcer index as well as ED50 were determined in the same manner as described in Experiment 1.

[2] = tested on: ethanol-induced gastric ulcer; test: Inhibitory effect on ethanol-induced gastric ulcer; format: in vivo, male Sprague-Dawley (SD) rats; details: Rattus norvegicus, po, 1 h; p.o.; male SD rats; ethanol (99.5%, 1 ml) orally 30 minutes after test compound; ulcer index after one hour
Experimental: The compounds of this invention have potent activity for promoting the action of the defensive factor. The activity can be evaluated by the defensive action against ulcer induced by ethanol (e.g. inhibitory effect on ethanol-induced gastric ulcer) [cf. Hara, Nobuyuki et al., Pharmacometrics, 29, 557 (1985)]. […] Inhibitory effect on ethanol-induced gastric ulcer: Male Sprague-Dawley (SD) rats (weighing 180-220 g, 8 weeks age, 16 rats per group) were fasted for 24 hours, and to the rats was orally administered the test compound in the form of a solution in distilled water or a suspension in 1% aqueous gum arabic. After 30 minutes, ethanol (99.5%, 1 ml) was orally administered to the rats in the same manner as described by Robert et al. [cf. Gastroenterology, 77, 433 (1979)]. One hour after the administration of ethanol, the rats were sacrificed under ether anesthesia, and the stomach was removed. Into the stomach was poured 1% formalin (12 ml), and then the stomach was immersed in 1% formalin for 15 minutes. The stomach was cut along the greater curvature, and the length (mm) of each ulcer occured on the fundic mucosa was measured with a dissecting microscope. Sum of the length of ulcers in each rat was used as the ulcer index in each rat. In control rats to which no test compound was administered, the ulcer index was determined likewise, and the mean value (mean ulcer index) was calculated. […] A dose-response curve was drawn based on the ratio thus obtained and the dose of test compounds, and therefrom, the 50% effective dose (ED50) was determined.

[3] = tested on: water-immersion stress-induced gastric ulcer; test: Inhibitory effect on water-immersion stress-induced gastric ulcer; format: in vivo; details: Rattus norvegicus, po; male SD rats; water bath at 23° C., 17 hours
Experimental: Inhibitory effect on water-immersion stress-induced gastric ulcer: Male SD rats (weighing 190-230 g, 8 weeks age, 16 rats per group) were fasted for 24 hours, and to the rats was orally administered the test compound in the form of a solution in distilled water or a suspension in 1% aqueous gum arabic. After 15 minutes, the rats were immersed vertically to the height of the xiphoid of the rats in water bath at 23° C. within a stress cage in the same manner as described by Takagi et al. [cf. Japanese Journal of Pharmacology, 18, 9 (1968)]. After 17 hours, the rats were sacrificed under ether anesthesia and the stomach was removed. The stomach was treated with formalin and the ulcer index as well as ED50 were determined in the same manner as described in Experiment 1.

[4] = Acute toxicity; details: mouse, in vivo, po; male ddY mice; death observed for 7 days; Weil's method
Experimental: To male ddY mice (weighing 18-22 g, 4 weeks age, […] mice per group) fasted overnight was orally administered the test compound in the form of a solution in distilled water or a suspension in 1% aqueous gum arabic. […] From the number of dead mice, LD50 was determined in the same manner as Weil's method.

SMILES: NC[C@H]1CC[C@H](C(=O)Oc2ccc(CCC(=O)O)cc2)CC1 [Reference compound, Cetraxate hydrochloride, reference compound]
- ED50 [1]: 361 mg/kg
- ED50 [2]: 112 mg/kg
- ED50 [3]: > 1000 mg/kg
- LD50 at 168 h [4]: > 8000 mg/kg

SMILES: COc1ccc(OC(=O)CN2CCN(Cc3cc(OC)c(OC)c(OC)c3)CC2)cc1.O.O=C(O)/C=C/C(=O)O.O=C(O)/C=C/C(=O)O [Compound 2, 1-[(4-Methoxyphenoxy)carbonylmethyl]-4-(3,4,5-trimethoxybenzyl)piperazine difumarate monohydrate]
- ED50 [1]: 11 mg/kg
- ED50 [2]: 30 mg/kg
- ED50 [3]: 123 mg/kg
- LD50 at 168 h [4]: 4800 mg/kg

SMILES: COc1ccc(OC(=O)CN2CCN(Cc3ccc(OC)c(OC)c3OC)CC2)cc1.Cl.Cl [Compound 1, 1-[(4-Methoxyphenoxy)carbonylmethyl]-4-(2,3,4-trimethoxybenzyl)piperazine dihydrochloride]
- ED50 [1]: 10 mg/kg
- ED50 [2]: 27 mg/kg
- ED50 [3]: 88 mg/kg
- LD50 at 168 h [4]: 4200 mg/kg
